Experiment [1] concerns the target T1, CPA (Homo sapiens, UniProt P15085).
T1 sequence (P15085 111-419): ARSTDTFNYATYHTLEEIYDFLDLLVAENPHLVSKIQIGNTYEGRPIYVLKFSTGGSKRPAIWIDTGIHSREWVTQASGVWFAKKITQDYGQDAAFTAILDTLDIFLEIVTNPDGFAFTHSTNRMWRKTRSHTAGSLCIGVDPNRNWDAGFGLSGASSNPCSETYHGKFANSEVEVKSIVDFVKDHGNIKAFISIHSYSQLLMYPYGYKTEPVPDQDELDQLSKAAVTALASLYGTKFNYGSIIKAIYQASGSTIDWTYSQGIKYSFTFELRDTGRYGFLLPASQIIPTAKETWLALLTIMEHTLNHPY
Briefly: Protease/carboxypeptidase panel: CPA. It counts as biochemical. The source says: Supplement srep32958-s1.docx, table 1: Table S1: Activities of Anabaenopeptins against a panel of proteases/carboxypeptidases. | column: CPA

Experiment [2] deals with T2, CPN (Homo sapiens, UniProt P15169).
T2 sequence (P15169 21-458): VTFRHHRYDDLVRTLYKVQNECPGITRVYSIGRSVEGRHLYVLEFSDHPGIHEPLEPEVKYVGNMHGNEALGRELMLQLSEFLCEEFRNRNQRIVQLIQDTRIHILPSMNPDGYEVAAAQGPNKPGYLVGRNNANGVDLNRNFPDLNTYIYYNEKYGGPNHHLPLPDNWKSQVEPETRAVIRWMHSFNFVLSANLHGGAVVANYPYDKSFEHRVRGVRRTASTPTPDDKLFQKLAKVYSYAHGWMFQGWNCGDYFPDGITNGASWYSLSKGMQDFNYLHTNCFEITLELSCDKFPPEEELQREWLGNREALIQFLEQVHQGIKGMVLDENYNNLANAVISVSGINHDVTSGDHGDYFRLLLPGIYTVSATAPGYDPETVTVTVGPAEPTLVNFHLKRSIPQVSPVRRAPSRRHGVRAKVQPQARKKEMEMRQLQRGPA
T2 sequence (P22792 22-545 partner): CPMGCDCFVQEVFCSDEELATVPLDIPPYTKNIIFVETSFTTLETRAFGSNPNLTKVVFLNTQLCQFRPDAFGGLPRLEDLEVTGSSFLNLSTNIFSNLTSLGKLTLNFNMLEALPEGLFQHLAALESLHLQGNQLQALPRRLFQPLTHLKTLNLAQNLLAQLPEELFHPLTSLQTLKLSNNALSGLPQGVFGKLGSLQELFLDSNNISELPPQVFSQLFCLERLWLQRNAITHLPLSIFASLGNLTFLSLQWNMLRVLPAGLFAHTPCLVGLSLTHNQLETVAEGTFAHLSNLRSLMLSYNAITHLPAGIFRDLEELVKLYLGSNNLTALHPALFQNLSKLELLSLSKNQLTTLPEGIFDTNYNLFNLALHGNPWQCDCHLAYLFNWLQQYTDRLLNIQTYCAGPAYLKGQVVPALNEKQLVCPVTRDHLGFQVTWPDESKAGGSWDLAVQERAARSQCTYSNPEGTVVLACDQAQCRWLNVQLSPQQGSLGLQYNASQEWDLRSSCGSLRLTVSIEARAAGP
Briefly: Protease/carboxypeptidase panel: CPN. It counts as biochemical. Particulars: read-out: IC50 CPN. The source says: Supplement srep32958-s1.docx, table 1: Table S1: Activities of Anabaenopeptins against a panel of proteases/carboxypeptidases. | column: CPN

The target in experiment [3] is FXa (Homo sapiens, UniProt P00742). Briefly: Protease/carboxypeptidase panel: FXa. It counts as biochemical. The source says:
Supplement srep32958-s1.docx, table 1: Table S1: Activities of Anabaenopeptins against a panel of proteases/carboxypeptidases. | column: FXa

The target of experiment [4] is FIIa (Homo sapiens, UniProt P00734). Briefly: Protease/carboxypeptidase panel: FIIa. It counts as biochemical. Particulars: read-out: Ki FIIa. The source says:
Supplement srep32958-s1.docx, table 1: Table S1: Activities of Anabaenopeptins against a panel of proteases/carboxypeptidases. | column: FIIa

Experiment [5] concerns the target T3, TAFIa (Homo sapiens, UniProt Q96IY4).
T3 construct: purchased American Diagnostica Pr; No. 874
T3 sequence (Q96IY4 115-423): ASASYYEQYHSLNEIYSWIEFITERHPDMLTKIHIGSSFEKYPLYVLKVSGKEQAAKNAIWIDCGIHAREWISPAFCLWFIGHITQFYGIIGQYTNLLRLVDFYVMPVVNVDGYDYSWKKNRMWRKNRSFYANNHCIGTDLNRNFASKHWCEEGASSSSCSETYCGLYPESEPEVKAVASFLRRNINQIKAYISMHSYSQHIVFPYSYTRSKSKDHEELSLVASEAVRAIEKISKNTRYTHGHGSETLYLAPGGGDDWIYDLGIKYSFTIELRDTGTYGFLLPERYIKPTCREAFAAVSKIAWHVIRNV
The experiment in a line: biochemical.

In experiment [6] the target is carboxypeptidase A. Particulars: cited from earlier work; for inhibitory concentrations carboxypeptidase A: in words.
Setting [7] is: enzymatic inhibition assay, duplicate determination, read-out: IC50 in nM against TAFIa.

In brackets after ≈: the same amount, converted by molar mass. Like-named read-outs stand apart in the source and are kept apart here. Numbered stars: 1 amine (or outer) side, 2 acyl side, 3 side chain; on linkers, the order of the positions; unused ones are H or OH. Bridge positions count the residues as written; N and C are the ends. Square brackets hold non-standard residues; d marks the D form. Peptide text beside a SMILES is read from it. ξ: configuration not given here. X1 = O=C([C@H](CCc1ccc(O)c(Cl)c1)N[*:1])[*:2]; NMehTyr = CN[C@@H](CCc1ccc(O)cc1)C(=O)O; Nle(6-Ph) = N[C@@H](CCCCc1ccccc1)C(=O)O; d(aIle) = CC[C@H](C)[C@@H](N)C(=O)O; hTyr = N[C@@H](CCc1ccc(O)cc1)C(=O)O; hhPhe = N[C@@H](CCCc1ccccc1)C(=O)O; aIle = CC[C@@H](C)[C@H](N)C(=O)O; hPhe = N[C@@H](CCc1ccccc1)C(=O)O; Ile(3ξ) = CCC(C)[C@H](N)C(=O)O; NMeN = CN[C@@H](CC(N)=O)C(=O)O; NMeS = CN[C@@H](CO)C(=O)O; NMeA = CN[C@@H](C)C(=O)O; CO = O=C([*:1])[*:2]; Sar = CNCC(=O)O

FXa, sequence (P00742 235-488 limits assumed): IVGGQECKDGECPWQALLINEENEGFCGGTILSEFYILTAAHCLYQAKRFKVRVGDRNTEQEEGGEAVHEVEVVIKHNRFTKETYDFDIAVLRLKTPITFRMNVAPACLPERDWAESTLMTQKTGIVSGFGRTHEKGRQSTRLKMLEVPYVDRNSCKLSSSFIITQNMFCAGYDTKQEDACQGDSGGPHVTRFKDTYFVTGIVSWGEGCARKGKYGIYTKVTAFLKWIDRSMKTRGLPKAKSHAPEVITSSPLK
FXa, sequence (P00742 41-179 partner limits assumed): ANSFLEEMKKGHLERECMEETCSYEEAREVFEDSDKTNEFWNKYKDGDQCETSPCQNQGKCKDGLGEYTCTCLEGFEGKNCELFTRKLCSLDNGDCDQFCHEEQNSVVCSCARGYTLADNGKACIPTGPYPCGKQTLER

As to `CC[C@H](C)[C@@H]1NC(=O)[C@H](NC(=O)N[C@@H](CCCNC(=N)N)C(=O)O)CCCCNC(=O)[C@H](Cc2ccccc2)NC(=O)[C@H](C)N(C)C(=O)[C@H](CCc2ccc(O)cc2)NC1=O` [Compound 3, Anabaenopeptin F] ({Arg-CO}-[dK]I[hTyr][NMeA]F; lactam 1-C), the IC50 (in general, the concentration that gives 50% inhibition) in experiment [1] stood at 1.1 µM; in experiment [2], 2.7 µM. The figures for the Ki in experiment [3] and in experiment [4] were 38 µM and 0.35 µM, respectively. `CCC(C)[C@@H]1NC(=O)[C@H](NC(=O)N[C@@H](CCCCN)C(=O)O)CCCCNC(=O)[C@H](Cc2ccccc2)NC(=O)[C@H](CC(N)=O)N(C)C(=O)[C@H](CCCc2ccccc2)NC1=O` (stereo partly drawn) [Compound 4, Anabaenopeptin SA4] ({Lys-CO}-[dK][Ile(3ξ)][hhPhe][NMeN]F; lactam 1-C): the IC50 in experiment [5] came out at 3.4 nM. For `CC[C@@H](C)[C@H](NC(=O)N[C@@H]1CCCCNC(=O)[C@H](Cc2ccccc2)NC(=O)[C@H](CC(N)=O)N(C)C(=O)[C@H](CCCCc2ccccc2)NC(=O)[C@@H]([C@@H](C)CC)NC1=O)C(=O)O` [Compound 8, Anabaenopeptin SA8] ({aIle-CO}-[dK][d(aIle)][Nle(6-Ph)][NMeN]F; lactam 1-C), the IC50 in experiment [5] (setting [7]) turned out to be 4800 nM.

Take `CC[C@@H](C)C1NC(=O)[C@H](NC(=O)N[C@@H](Cc2ccccc2)C(=O)O)CCCCNC(=O)[C@H](CCc2ccccc2)NC(=O)CN(C)C(=O)[C@H](CCc2ccc(O)c(Cl)c2)NC1=O` (stereo partly drawn) [Compound 9, Anabaenopeptin SA9]: the IC50 in experiment [5] (setting [7]) is 31000 nM. On the same count and under the same terms, the same measure for `CC(C)[C@H]1NC(=O)[C@H](NC(=O)N[C@@H](Cc2ccccc2)C(=O)O)CCCCNC(=O)[C@H](CCc2ccc(O)c(Cl)c2)NC(=O)CN(C)C(=O)[C@H](CCc2ccc(O)cc2)NC1=O` [Compound 10, Anabaenopeptin SA10] ({Phe-CO}-[dK][dV][hTyr][Sar][X1]; lactam 1-C): 7000 nM; for `CC[C@@H](C)C1NC(=O)[C@H](NC(=O)N[C@@H](Cc2ccccc2)C(=O)O)CCCCNC(=O)[C@H](CCc2ccc(O)c(Cl)c2)NC(=O)CN(C)C(=O)[C@H](CCc2ccc(O)cc2)NC1=O` (stereo partly drawn) [Compound 11, Anabaenopeptin SA11]: 15000 nM. The same measure, in the same setting: the same measure for `CC(C)[C@@H]1NC(=O)[C@H](NC(=O)N[C@@H](Cc2ccc(O)cc2)C(=O)O)CCCCNC(=O)[C@H](Cc2ccccc2)NC(=O)[C@H](C)N(C)C(=O)[C@H](CCc2ccc(O)cc2)NC1=O` [Compound 13, Anabaenopeptin A] ({Tyr-CO}-[dK]V[hTyr][NMeA]F; lactam 1-C): 440 nM. In the case of `CC[C@H](C)[C@@H]1NC(=O)[C@H](CCc2ccc(O)cc2)N(C)C(=O)[C@H](CCc2ccc(O)cc2)NC(=O)[C@H](C(C)C)NC(=O)[C@H](NC(=O)N[C@@H](Cc2ccc(O)cc2)C(=O)O)CCCCNC1=O` [Compound 15, Anabaenopeptine 915] ({Tyr-CO}-[dK]V[hTyr][NMehTyr]I; lactam 1-C), the midpoint of inhibition in experiment [5], the IC50, lay at 530 nM.

In experiment [5], `CC[C@H](C)[C@@H]1NC(=O)[C@H](CCc2ccc(O)cc2)N(C)C(=O)[C@H](CCc2ccc(O)cc2)NC(=O)[C@H](C(C)C)NC(=O)[C@H](NC(=O)N[C@@H](CCCNC(=N)N)C(=O)O)CCCCNC1=O` [Compound 16, Anabaenopeptin 908] ({Arg-CO}-[dK]V[hTyr][NMehTyr]I; lactam 1-C) returned a concentration for half-maximal inhibition (IC50) of 1.8 nM.

With `CC[C@H](C)[C@H]1NC(=O)[C@H](NC(=O)N[C@@H](CCCCN)C(=O)O)CCCCNC(=O)[C@H](Cc2ccccc2)NC(=O)[C@H](C)N(C)C(=O)[C@H](CCc2ccc(O)cc2)NC1=O` [Compound 17, Anabaenopeptin SA3] ({Lys-CO}-[dK][d(aIle)][hTyr][NMeA]F; lactam 1-C), the IC50 in experiment [5] (setting [7]) came to 2.1 nM. On the same count and under the same terms, to `CC[C@@H](C)[C@H](NC(=O)N[C@@H]1CCCCNC(=O)[C@H](Cc2ccccc2)NC(=O)[C@H](CC(N)=O)N(C)C(=O)[C@H](CCc2ccccc2)NC(=O)[C@H]([C@H](C)CC)NC1=O)C(=O)O` [Compound 18, Anabaenopeptin SA6] ({aIle-CO}-[dK][aIle][hPhe][NMeN]F; lactam 1-C) belongs 51000 nM. The same measure, in the same setting: to `CC(C)[C@H]1NC(=O)[C@H](NC(=O)N[C@@H](CCCN=C(N)N)C(=O)O)CCCCNC(=O)[C@H](Cc2ccccc2)NC(=O)[C@H](CO)N(C)C(=O)[C@H](CCc2ccc(O)cc2)NC1=O` [Compound 19, Anabaenopeptin SA2] ({Arg-CO}-[dK][dV][hTyr][NMeS]F; lactam 1-C) belongs 16 nM; to `CC(C)[C@H]1NC(=O)[C@H](NC(=O)N[C@@H](Cc2ccc(O)cc2)C(=O)O)CCCCNC(=O)[C@H](Cc2ccccc2)NC(=O)[C@H](CO)N(C)C(=O)[C@H](CCc2ccc(O)cc2)NC1=O` [Compound 20, Anabaenopeptin SA13] ({Tyr-CO}-[dK][dV][hTyr][NMeS]F; lactam 1-C), 2500 nM.

For the molecule `CC[C@H](C)[C@@H]1NC(=O)[C@H](NC(=O)N[C@@H](Cc2ccc(O)cc2)C(=O)O)CCCCNC(=O)[C@H]([C@@H](C)CC)NC(=O)[C@H](CCc2ccc(O)cc2)N(C)C(=O)[C@H](CCc2ccc(O)cc2)NC1=O` [anabaenopeptin G] ({Tyr-CO}-[dK]I[hTyr][NMehTyr]I; lactam 1-C), the “inhibitory concentrations carboxypeptidase A” value in experiment [6] was “nanomolar”. With `CC[C@H](C)[C@@H]1NC(=O)[C@H](NC(=O)N[C@@H](CCCNC(=N)N)C(=O)O)CCCCNC(=O)[C@H]([C@@H](C)CC)NC(=O)[C@H](CCc2ccc(O)cc2)N(C)C(=O)[C@H](CCc2ccc(O)cc2)NC1=O` [anabaenopeptin H] ({Arg-CO}-[dK]I[hTyr][NMehTyr]I; lactam 1-C), the “IC50 carboxypeptidase A” value in experiment [6] is 3.4 µg/mL (≈ 3.68 µM). Take `CC[C@H](C)[C@H](NC(=O)N[C@@H]1CCCCNC(=O)[C@H](CC(C)C)NC(=O)[C@H](C)N(C)C(=O)[C@H](CCc2ccc(O)cc2)NC(=O)[C@H](C(C)C)NC1=O)C(=O)O` [anabaenopeptin I] ({Ile-CO}-[dK]V[hTyr][NMeA]L; lactam 1-C): in experiment [6], the “inhibitory concentrations carboxypeptidase A” value was “nanomolar”. In the case of `CC[C@H](C)[C@H](NC(=O)N[C@@H]1CCCCNC(=O)[C@H](Cc2ccccc2)NC(=O)[C@H](C)N(C)C(=O)[C@H](CCc2ccc(O)cc2)NC(=O)[C@H](C(C)C)NC1=O)C(=O)O` [anabaenopeptin J] ({Ile-CO}-[dK]V[hTyr][NMeA]F; lactam 1-C), the “inhibitory concentrations carboxypeptidase A” value in experiment [6] is listed as “nanomolar”.

Anabaenopeptin SA1 [Compound 5]: the IC50 in experiment [5] (setting [7]) was found to be 2.2 nM. On to Anabaenopeptin SA5 [Compound 6], for which, in experiment [5] (setting [7]), the IC50 is 790 nM. As for Anabaenopeptin SA7 [Compound 7], in experiment [5] (setting [7]), the IC50 was 13000 nM. Same read-out and setting: the same measure for Anabaenopeptin SA12 [Compound 12]: 4300 nM.
